Measured values as given in US20260201008A1, “SECRETIN-DERIVED GLP1R SELECTIVE AGONISTS” (GUBRA A/S, priority 2023, published 2026).
Read-outs that look alike come from different tables or passages of the source. Numbered stars: 1 amine (or outer) side, 2 acyl side, 3 side chain; on linkers, the order of the positions; unused ones are H or OH. Square brackets hold non-standard residues; d marks the D form. Side chains are listed from the residue outwards. Peptide text beside a SMILES is read from it. * marks the point of attachment. C20 diacid = O=C(O)CCCCCCCCCCCCCCCCCCC(=O)*; γGlu = O=C(O)[C@H](CCC(=O)[*:2])N[*:1]; AEEA = NCCOCCOCC(=O)O; Aib = CC(C)(N)C(=O)O

Experiments:
[1] = Turbidity of crude library peptides (absorbance at 600 nm); type: physicochemical; conditions: Physical stability of peptides
Outline: (§1)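 Values reflect mean ThT emission (ex 450, em 480 nm) over 72 h at 40° C, read every 10 min after 5 min shaking at 700 rpm, plus a single initial absorbance at 600 nm for turbidity. Peptides were at 267 μM, pH 4.0 acetate or pH 7.0 phosphate (50 mM), with 4 μM ThT.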

[2] = Fibril formation of crude library peptides (Thioflavin T); type: physicochemical; parameters: key: average ThT fluorescence emission at 480 nm (ex 450 nm), raw units; conditions: Physical stability of peptides
Outline: as §1

[3] = biological target: GLP1R (Homo sapiens, UniProt P43220); experiment: hGLP1R potency, cAMP accumulation in CHO-K1 cells stably overexpressing hGLP1R; type: cell-based; parameters: host or cells: CHO-K1; conditions: for Selectivity: SCTR EC50/GLP1R EC50 ratio; for EC50: cAMP accumulation; for SCTR EC50/GLP1R EC50 ratio: cAMP accumulation in CHO-K1 cells
Sequence of GLP1R (P43220 24-463): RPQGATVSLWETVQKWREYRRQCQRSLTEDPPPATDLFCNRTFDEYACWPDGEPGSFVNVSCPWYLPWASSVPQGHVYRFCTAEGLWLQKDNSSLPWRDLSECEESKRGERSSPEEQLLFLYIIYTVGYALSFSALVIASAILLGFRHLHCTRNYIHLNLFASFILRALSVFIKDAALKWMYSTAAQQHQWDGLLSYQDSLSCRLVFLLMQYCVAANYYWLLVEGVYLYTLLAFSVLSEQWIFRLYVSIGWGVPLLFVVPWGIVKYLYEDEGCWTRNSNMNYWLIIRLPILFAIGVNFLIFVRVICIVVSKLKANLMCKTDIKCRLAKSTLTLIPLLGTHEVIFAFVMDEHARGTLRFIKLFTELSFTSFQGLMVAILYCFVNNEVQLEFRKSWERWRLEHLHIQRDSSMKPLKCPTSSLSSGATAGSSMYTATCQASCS
Outline: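 Potency reflects cAMP accumulation measured by time-resolved fluorescence energy transfer after a 30 min room-temperature stimulation in IBMX-containing (0.5 mM) DPBS with casein. Purified peptides were tested in duplicate over eleven threefold dilutions, and EC50 was obtained from sigmoid concentration-response fitting.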

[4] = biological target: SCTR (Homo sapiens, UniProt P47872); experiment: hSCTR potency, cAMP accumulation in CHO-K1 cells stably overexpressing hSCTR; type: cell-based; parameters: alternatively Euroscreen ES-712-AF; FAST-0161L; host or cells: CHO-K1; conditions: cAMP accumulation
Sequence of SCTR (P47872 23-440): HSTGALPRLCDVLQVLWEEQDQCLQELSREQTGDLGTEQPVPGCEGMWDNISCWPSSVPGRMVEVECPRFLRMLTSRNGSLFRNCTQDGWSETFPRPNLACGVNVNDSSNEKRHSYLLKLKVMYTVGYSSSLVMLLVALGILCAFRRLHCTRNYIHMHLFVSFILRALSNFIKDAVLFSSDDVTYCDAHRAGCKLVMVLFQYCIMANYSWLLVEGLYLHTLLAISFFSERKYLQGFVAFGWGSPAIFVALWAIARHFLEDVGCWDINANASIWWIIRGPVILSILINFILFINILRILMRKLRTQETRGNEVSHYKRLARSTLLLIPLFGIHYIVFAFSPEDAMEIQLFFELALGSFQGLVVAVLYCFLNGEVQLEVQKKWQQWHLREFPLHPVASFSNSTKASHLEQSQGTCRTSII
Outline: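 Potency reflects cAMP accumulation after 30 min agonist exposure at room temperature in hSCTR-expressing CHO-K1 cells, with 0.5 mM IBMX present to block phosphodiesterase. EC50 was derived by nonlinear regression.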

[5] = CHO-K1 cells overexpressing hGLP1R, read-out: pEC50 hGLPR1 (converted)
[6] = CHO-K1 cells overexpressing hSCTR, read-out: pEC50 hSCTR (converted)
[7] = CHO-K1 cells overexpressing hGLP1R, read-out: hGLP1R pEC50 (converted)
[8] = selectivity for hGLP1R over hSCTR
[9] = CHO-K1 cells overexpressing hSCTR, read-out: hSCTR pEC50 (converted)

Compound | Turbidity (pH 7) [1] | Fibril formation [2] | Selectivity [3] | EC50 [3, 5] [nM] | EC50 [4, 6] [nM] | EC50 [3, 7] [nM] | SCTR EC50/GLP1R EC50 ratio [3, 8] | EC50 [4, 9] [nM] | EC50 ([3]; CHO-K1 cells stably overexpressing hGLP1R, read-out: hGLP1R potency (pEC50) (converted)) [nM] | SCTR EC50/GLP1R EC50 ratio ([3]; selectivity ratio, hSCTR vs hGLP1R) | EC50 ([4]; CHO-K1 cells stably overexpressing hSCTR, read-out: hSCTR potency (pEC50) (converted)) [nM]
CC(C)C[C@H](NC(=O)[C@H](Cc1ccccc1)NC(=O)[C@H](CCCNC(=N)N)NC(=O)[C@H](CCC(N)=O)NC(=O)[C@H](CO)NC(=O)[C@H](C)NC(=O)[C@H](C)NC(=O)[C@H](Cc1ccccc1)NC(=O)[C@H](CCC(=O)O)NC(=O)[C@H](CCCCNC(=O)COCCOCCNC(=O)COCCOCCNC(=O)CC[C@H](NC(=O)CCCCCCCCCCCCCCCCCCC(=O)O)C(=O)O)NC(=O)[C@H](CC(C)C)NC(=O)[C@H](Cc1ccc(O)cc1)NC(=O)[C@H](CO)NC(=O)[C@@H](NC(=O)[C@H](CC(=O)O)NC(=O)[C@H](CO)NC(=O)[C@@H](NC(=O)[C@H](Cc1ccccc1)NC(=O)[C@@H](NC(=O)CNC(=O)[C@H](CCC(=O)O)NC(=O)C(C)(C)NC(=O)[C@@H](N)Cc1c[nH]cn1)[C@@H](C)O)[C@@H](C)O)C(C)C)C(=O)N[C@@H](CCC(=O)O)C(=O)N[C@@H](Cc1c[nH]cn1)C(=O)N[C@@H](CC(C)C)C(=O)N[C@H](C(N)=O)C(C)C [compound 66] (H-H[Aib]EGTFTSDVSYLK([AEEA-AEEA-γGlu-C20 diacid])EFAASQRFLEHLV-NH2) | 0.08 | 201306 | 81752 | 0.0398 | 3160 | – | – | – | – | – | –
CC(C)C[C@H](NC(=O)[C@H](Cc1ccccc1)NC(=O)[C@H](CCCNC(=N)N)NC(=O)[C@H](CCC(N)=O)NC(=O)[C@H](CCC(=O)O)NC(=O)[C@H](C)NC(=O)[C@H](C)NC(=O)[C@H](CCC(=O)O)NC(=O)[C@H](CCC(=O)O)NC(=O)[C@H](CCCCNC(=O)COCCOCCNC(=O)COCCOCCNC(=O)CC[C@H](NC(=O)CCCCCCCCCCCCCCCCCCC(=O)O)C(=O)O)NC(=O)[C@H](CC(C)C)NC(=O)[C@H](CCC(=O)O)NC(=O)[C@H](CO)NC(=O)[C@@H](NC(=O)[C@H](CC(=O)O)NC(=O)[C@H](CO)NC(=O)[C@@H](NC(=O)[C@H](Cc1ccccc1)NC(=O)[C@@H](NC(=O)CNC(=O)[C@H](CCC(=O)O)NC(=O)C(C)(C)NC(=O)[C@@H](N)Cc1c[nH]cn1)[C@@H](C)O)[C@@H](C)O)C(C)C)C(=O)N[C@@H](CCC(=O)O)C(=O)N[C@@H](Cc1c[nH]cn1)C(=O)N[C@@H](CC(C)C)C(=O)N[C@H](C(N)=O)C(C)C [compound 51] (H-H[Aib]EGTFTSDVSELK([AEEA-AEEA-γGlu-C20 diacid])EEAAEQRFLEHLV-NH2) | 0.09 | 8475 | 63009 | 0.0316 | 2000 | – | – | – | – | – | –
CC[C@H](C)[C@H](NC(=O)[C@H](Cc1ccccc1)NC(=O)[C@H](CCCNC(=N)N)NC(=O)[C@H](CCC(N)=O)NC(=O)[C@H](CC(C)C)NC(=O)[C@H](C)NC(=O)[C@H](C)NC(=O)CNC(=O)[C@H](CCC(=O)O)NC(=O)[C@H](CC(C)C)NC(=O)[C@H](CC(C)C)NC(=O)[C@H](CCC(=O)O)NC(=O)[C@H](CO)NC(=O)[C@@H]1CCCN1C(=O)[C@H](CC(=O)O)NC(=O)[C@H](CO)NC(=O)[C@@H](NC(=O)[C@H](Cc1ccccc1)NC(=O)[C@@H](NC(=O)CNC(=O)[C@H](CCC(=O)O)NC(=O)C(C)(C)NC(=O)[C@@H](N)Cc1c[nH]cn1)[C@@H](C)O)[C@@H](C)O)C(=O)N[C@@H](CCC(N)=O)C(=O)N[C@@H](Cc1c[nH]c2ccccc12)C(=O)N[C@@H](CC(C)C)C(=O)N[C@H](C(N)=O)C(C)C [compound 122] (H-H[Aib]EGTFTSDPSELLEGAALQRFIQWLV-NH2) | 0.08 | 3560 | – | – | – | 6.31 | 804 | 5010 | – | – | –
CC(C)C[C@H](NC(=O)[C@H](Cc1ccccc1)NC(=O)[C@H](CCCNC(=N)N)NC(=O)[C@H](CCC(N)=O)NC(=O)[C@H](CC(C)C)NC(=O)C(C)(C)NC(=O)[C@H](C)NC(=O)[C@H](CCC(=O)O)NC(=O)[C@H](CCC(=O)O)NC(=O)[C@H](CCCCNC(=O)COCCOCCNC(=O)COCCOCCNC(=O)CC[C@H](NC(=O)CCCCCCCCCCCCCCCCCCC(=O)O)C(=O)O)NC(=O)[C@H](CC(C)C)NC(=O)[C@H](Cc1c[nH]cn1)NC(=O)[C@H](CO)NC(=O)[C@@H](NC(=O)[C@H](CC(=O)O)NC(=O)[C@H](CO)NC(=O)[C@@H](NC(=O)[C@H](Cc1ccccc1)NC(=O)[C@@H](NC(=O)CNC(=O)[C@H](CCC(=O)O)NC(=O)C(C)(C)NC(=O)[C@@H](N)Cc1c[nH]cn1)[C@@H](C)O)[C@@H](C)O)C(C)C)C(=O)N[C@@H](CCC(=O)O)C(=O)N[C@@H](Cc1c[nH]cn1)C(=O)N[C@@H](CC(C)C)C(=O)N[C@H](C(N)=O)C(C)C [compound 145] (H-H[Aib]EGTFTSDVSHLK([AEEA-AEEA-γGlu-C20 diacid])EEA[Aib]LQRFLEHLV-NH2) | 0.08 | 2891 | – | – | – | 0.00794 | 8838 | 63.1 | – | – | –
CC[C@H](C)[C@H](NC(=O)[C@H](Cc1ccccc1)NC(=O)[C@H](CCCNC(=N)N)NC(=O)[C@H](CCC(N)=O)NC(=O)[C@H](CC(C)C)NC(=O)[C@H](C)NC(=O)[C@H](C)NC(=O)CNC(=O)[C@H](CCC(=O)O)NC(=O)[C@H](CC(C)C)NC(=O)[C@H](CC(C)C)NC(=O)[C@H](CCCNC(=N)N)NC(=O)[C@H](CO)NC(=O)[C@H](Cc1ccc(O)cc1)NC(=O)[C@H](CC(=O)O)NC(=O)[C@H](CO)NC(=O)[C@@H](NC(=O)[C@H](Cc1ccccc1)NC(=O)[C@@H](NC(=O)CNC(=O)[C@H](CCC(=O)O)NC(=O)C(C)(C)NC(=O)[C@@H](N)Cc1c[nH]cn1)[C@@H](C)O)[C@@H](C)O)C(=O)N[C@@H](CCC(N)=O)C(=O)N[C@@H](Cc1c[nH]c2ccccc12)C(=O)N[C@@H](CC(C)C)C(=O)N[C@H](C(N)=O)C(C)C [compound 194] (H-H[Aib]EGTFTSDYSRLLEGAALQRFIQWLV-NH2) | 0.27 | 8355 | – | – | – | – | – | – | 0.0126 | 114 | 1.58
CC(C)C[C@H](NC(=O)[C@H](Cc1ccccc1)NC(=O)[C@H](CCCNC(=N)N)NC(=O)[C@H](CCC(N)=O)NC(=O)[C@H](CCC(=O)O)NC(=O)[C@H](C)NC(=O)[C@H](C)NC(=O)[C@H](CCC(=O)O)NC(=O)[C@H](CCC(=O)O)NC(=O)[C@H](CCCCNC(=O)COCCOCCNC(=O)COCCOCCNC(=O)CC[C@H](NC(=O)CCCCCCCCCCCCCCCCCCC(=O)O)C(=O)O)NC(=O)[C@H](CC(C)C)NC(=O)[C@H](Cc1ccccc1)NC(=O)[C@H](CO)NC(=O)[C@@H](NC(=O)[C@H](CC(=O)O)NC(=O)[C@H](CO)NC(=O)[C@@H](NC(=O)[C@H](Cc1ccccc1)NC(=O)[C@@H](NC(=O)CNC(=O)[C@H](CCC(=O)O)NC(=O)C(C)(C)NC(=O)[C@@H](N)Cc1c[nH]cn1)[C@@H](C)O)[C@@H](C)O)C(C)C)C(=O)N[C@@H](CCC(=O)O)C(=O)N[C@@H](Cc1c[nH]cn1)C(=O)N[C@@H](CC(C)C)C(=O)N[C@H](C(N)=O)C(C)C [compound 56] (H-H[Aib]EGTFTSDVSFLK([AEEA-AEEA-γGlu-C20 diacid])EEAAEQRFLEHLV-NH2) | 0.10 | 11030 | 179887 | 0.0398 | 7940 | – | – | – | – | – | –
CC(C)C[C@H](NC(=O)[C@H](Cc1ccccc1)NC(=O)[C@H](CCCNC(=N)N)NC(=O)[C@H](CCC(N)=O)NC(=O)[C@H](CC(C)C)NC(=O)C(C)(C)NC(=O)[C@H](C)NC(=O)[C@H](CCC(=O)O)NC(=O)[C@H](CCC(=O)O)NC(=O)[C@H](CCCCNC(=O)COCCOCCNC(=O)COCCOCCNC(=O)CC[C@H](NC(=O)CCCCCCCCCCCCCCCCCCC(=O)O)C(=O)O)NC(=O)[C@H](CC(C)C)NC(=O)[C@H](Cc1ccc(O)cc1)NC(=O)[C@H](CO)NC(=O)[C@@H]1CCCN1C(=O)[C@H](CC(=O)O)NC(=O)[C@H](CO)NC(=O)[C@@H](NC(=O)[C@H](Cc1ccccc1)NC(=O)[C@@H](NC(=O)CNC(=O)[C@H](CCC(=O)O)NC(=O)C(C)(C)NC(=O)[C@@H](N)Cc1c[nH]cn1)[C@@H](C)O)[C@@H](C)O)C(=O)N[C@@H](CCC(=O)O)C(=O)N[C@@H](Cc1c[nH]cn1)C(=O)N[C@@H](CC(C)C)C(=O)N[C@H](C(N)=O)C(C)C [compound 121] (H-H[Aib]EGTFTSDPSYLK([AEEA-AEEA-γGlu-C20 diacid])EEA[Aib]LQRFLEHLV-NH2) | 0.08 | 24767 | – | – | – | 2.51 | 17452 | 39800 | – | – | –
